Measurements as given in patent US11510920B2, “Compositions and methods for treating EZH2-mediated cancer” (Icahn School of Medicine at Mount Sinai, priority 2016, dated 2022).

system: HCC1187 cells; test: Proliferation assay (IncuCyte cell confluence), HCC1187; type: cell-based; details: Homo sapiens, concentration for 50% of maximal inhibition of cell proliferation
Protocol: (§1) 1-3×10^3 cells were seeded in 96-well plates in duplicates and treated at the indicated compound concentrations. Cells were monitored using the IncuCyte® live cell imaging system (Essen BioScience™, Ann Arbor, Mich.) which was placed in a cell culture incubator operated at 37° C. and 5% CO2. Cell confluence was determined using calculations derived from phase-contrast images. The concentration for 50% of maximal inhibition of cell proliferation (GI50) values were determined by fitting to a standard four-parameter logistic using GraphPad Prism® v5. Graphs depicting the GI50s of select EZH2 degraders/disruptors described here for various cancer cell lines are shown in FIGS. 4-49.

GI50 | SMILES
2 µM | CCCc1cc(C)[nH]c(=O)c1CNC(=O)c1cc(-c2ccc(N3CCN(C(=O)CCC45CC6CC(CC(C6)C4)C5)CC3)nc2)cc2c1cnn2C(C)C [AM16-38A, 6-(6-(4-(3-((3r,5r,7r)-adamantan-1-yl)propanoyl)piperazin-1-yl)pyridin-3-yl)-1-isopropyl-N-((6-methyl-2-oxo-4-propyl-1,2-dihydropyridin-3-yl)methyl)-1H-indazole-4-carboxamide]
1.2 µM | Cc1cc(C)c(CNC(=O)c2cc(-c3ccc(N4CCN(C(=O)[C@H](C)CCC56CC7CC(CC(C7)C5)C6)CC4)nc3)cc3c2cnn3C(C)C)c(=O)[nH]1 [AM16-97A, 6-(6-(4-((2R)-4-((1r,3S)-adamantan-1-yl)-2-methylbutanoyl)piperazin-1-yl)pyridin-3-yl)-N-((4,6-dimethyl-2-oxo-1,2-dihydropyridin-3-yl)methyl)-1-isopropyl-1H-indazole-4-carboxamide]
2.2 µM | Cc1cc(C)c(CNC(=O)c2cc(-c3ccc(N4CCN(CCNC(=O)CCC56CC7CC(CC(C7)C5)C6)CC4)nc3)cc3c2cnn3C(C)C)c(=O)[nH]1 [XY019-44, 6-(6-(4-(2-(3-((3r,5r,7r)-adamantan-1-yl)propanamido)ethyl)piperazin-1-yl)pyridin-3-yl)-N-((4,6-dimethyl-2-oxo-1,2-dihydropyridin-3-yl)methyl)-1-isopropyl-1H-indazole-4-carboxamide]

The remaining lines, values behind:

SMILES | GI50
Cc1cc(C)c(CNC(=O)c2cc(-c3ccc(N4CCN(CCCNC(=O)[C@H](C)CCC56CC7CC(CC(C7)C5)C6)CC4)nc3)cc3c2cnn3C(C)C)c(=O)[nH]1 [AM16-106A, 6-(6-(4-(3-((R)-4-((3R,5R,7R)-adamantan-1-yl)-2-methyl-butanamido)propyl)piperazin-1-yl)pyridin-3-yl)-N-((4,6-dimethyl-2-oxo-1,2-dihydro-pyridin-3-yl)methyl)-1-isopropyl-1H-indazole-4-carboxamide] | 4.3 µM
CCCc1cc(C)[nH]c(=O)c1CNC(=O)c1cc(-c2ccc(N3CCN(C(=O)CC45CC6CC(CC(C6)C4)C5)CC3)nc2)cc2c1cnn2C(C)C [AM16-37A, 6-(6-(4-(2-((1s,3s)-adamantan-1-yl)acetyl)piperazin-1-yl)pyridin-3-yl)-1-isopropyl-N-((6-methyl-2-oxo-4-propyl-1,2-dihydropyridin-3-yl)methyl)-1H-indazole-4-carboxamide] | 2.1 µM
CCCc1cc(C)[nH]c(=O)c1CNC(=O)c1cc(-c2ccc(N3CCN(CCNC(=O)CCC45CC6CC(CC(C6)C4)C5)CC3)nc2)cc2c1cnn2C(C)C [AM16-11A, 6-(6-(4-(2-(3-((1r,3s)-adamantan-1-yl)propanamido)ethyl)piperazin-1-yl)pyridin-3-yl)-1-isopropyl-N-((6-methyl-2-oxo-4-propyl-1,2-dihydro-pyridin-3-yl)methyl)-1H-indazole-4-carboxamide] | 2.6 µM
Cc1cc(C)c(CNC(=O)c2cc(-c3ccc(N4CCN(C(=O)CCC56CC7CC(CC(C7)C5)C6)CC4)nc3)cc3c2cnn3C(C)C)c(=O)[nH]1 [AM16-93A, 6-(6-(4-(3-((1r,3s)-adamantan-1-yl)propanoyl)piperazin-1-yl)pyridin-3-yl)-N-((4,6-dimethyl-2-oxo-1,2-dihydropyridin-3-yl)methyl)-1-isopropyl-1H-indazole-4-carboxamide] | 1.5 µM

system: MDA-MB-468 cells; test: Proliferation assay (IncuCyte cell confluence), MDA-MB-468; type: cell-based; details: Homo sapiens, concentration for 50% of maximal inhibition of cell proliferation
Protocol: as §1

GI50 | SMILES
1.8 µM | CCN(c1cc(-c2ccc(CN3CCN(CCNCCC45CC6CC(CC(C6)C4)C5)CC3)cc2)cc(C(=O)NCc2c(C)cc(C)[nH]c2=O)c1C)C1CCOCC1 [CZ40-149, 4′-((4-(2-((2-((1s,3s)-adamantan-1-yl)ethyl)amino)ethyl)piperazin-1-yl)methyl)-N-((4,6-dimethyl-2-oxo-1,2-dihydropyridin-3-yl)methyl)-5-(ethyl(tetra-hydro-2H-pyran-4-yl)amino)-4-methyl-[1,1′-biphenyl]-3-carboxamide]
2.4 µM | CO[C@H]1C[C@@H](C)C/C(C)=C/[C@@H](CCCSCCC(=O)NCCN2CCN(c3ccc(-c4cc(C(=O)NCc5c(C)cc(C)[nH]c5=O)c5cnn(C(C)C)c5c4)cn3)CC2)C(=O)C[C@H](O)[C@@H](C)[C@@H](/C(C)=C/[C@@H]2CC[C@@H](O)[C@H](OC)C2)OC(=O)[C@@H]2CCCCN2C(=O)C(=O)[C@]2(O)O[C@H]1[C@@H](OC)C[C@H]2C [XY028-086, FK506 adduct with N-((4,6-dimethyl-2-oxo-1,2-dihydropyridin-3-yl)methyl)-1-isopropyl-6-(6-(4-(2-(3-mercaptopro-panamido)ethyl)piperazin-1-yl)pyridin-3-yl)-1H-indazole-4-carboxamide]
2.3 µM | Cc1cc(C)c(CNC(=O)c2cc(-c3ccc(N4CCN(CCNCCC56CC7CC(CC(C7)C5)C6)CC4)nc3)cc3c2c(C)cn3C(C)C)c(=O)[nH]1 [AM41-41A, 6-(6-(4-(2-((2-((3r,5r,7r)-adamantan-1-yl)ethyl)amino)ethyl)piperazin-1-yl)pyridin-3-yl)-N-((4,6-dimethyl-2-oxo-1,2-dihydropyridin-3-yl)methyl)-1-isopropyl-3-methyl-1H-indole-4-carboxamide]

Further lines, the compound ahead of its results:

SMILES | GI50
CO[C@H]1C[C@@H](C)C/C(C)=C/[C@@H](CCCSCCC(=O)NCCN2CCC([C@H](C)n3c(C)c(C(=O)NCc4c(C)cc(C)[nH]c4=O)c4ccccc43)CC2)C(=O)C[C@H](O)[C@@H](C)[C@@H](/C(C)=C/[C@@H]2CC[C@@H](O)[C@H](OC)C2)OC(=O)[C@@H]2CCCCN2C(=O)C(=O)[C@]2(O)O[C@H]1[C@@H](OC)C[C@H]2C [XF042-92, FK506 adduct with (S)-N-((4,6-dimethyl-2-oxo-1,2-dihydropyridin-3-yl)methyl)-1-(1-(1-(2-(3-mercaptopropanamido)ethyl)piperidin-4-yl)ethyl)-2-methyl-1H-indole-3-carboxamide] | 2.6 µM
CCN(c1cc(-c2ccc(CN3CCN(CCN(CCC45CC6CC(CC(C6)C4)C5)CCC45CC6CC(CC(C6)C4)C5)CC3)cc2)cc(C(=O)NCc2c(C)cc(C)[nH]c2=O)c1C)C1CCOCC1 [CZ40-75, 4′-((4-(2-((2-((1s,3S)-adamantan-1-yl)ethyl)(2-((3R,5R,7R)-adamantan-1-yl)ethyl)amino)ethyl)piperazin-1-yl)methyl)-N-((4,6-dimethyl-2-oxo-1,2-dihydropyridin-3-yl)methyl)-5-(ethyl(tetra-hydro-2H-pyran-4-yl)amino)-4-methyl-[1,1′-biphenyl]-3-carboxamide] | 1.1 µM
Cc1cc(C)c(CNC(=O)c2c(C)n([C@@H](C)C3CCN(CCNC(=O)CC4C5CC6CC(C5)CC4C6)CC3)c3ccccc23)c(=O)[nH]1 (stereo partly drawn) [XF042-90, 1-((S)-1-(1-(2-(2-((1R,3S,5S,7S)-adamantan-2-yl)acetamido)ethyl)piperidin-4-yl)ethyl)-N-((4,6-dimethyl-2-oxo-1,2-dihydropyridin-3-yl)methyl)-2-methyl-1H-indole-3-carboxamide] | 7.2 µM
Cc1cc(C)c(CNC(=O)c2c(C)n([C@@H](C)C3CCN(CCN(CCC45CC6CC(CC(C6)C4)C5)CCC45CC6CC(CC(C6)C4)C5)CC3)c3ccccc23)c(=O)[nH]1 [XF042-93, 1-((S)-1-(1-(2-(bis(2-((3S,5S,7S)-adamantan-1-yl)ethyl)amino)ethyl)piperidin-4-yl)ethyl)-N-((4,6-dimethyl-2-oxo-1,2-dihydropyridin-3-yl)methyl)-2-methyl-1H-indole-3-carboxamide] | 2.2 µM
CCN(c1cc(-c2ccc(CN3CCN(CCNC(=O)CCSCCC[C@@H]4/C=C(\C)C[C@H](C)C[C@H](OC)[C@H]5O[C@@](O)(C(=O)C(=O)N6CCCC[C@H]6C(=O)O[C@H](/C(C)=C/[C@@H]6CC[C@@H](O)[C@H](OC)C6)[C@H](C)[C@@H](O)CC4=O)[C@H](C)C[C@@H]5OC)CC3)cc2)cc(C(=O)NCc2c(C)cc(C)[nH]c2=O)c1C)C1CCOCC1 [CZ40-131, FK506 adduct with N-((4,6-dimethyl-2-oxo-1,2-dihydropyridin-3-yl)methyl)-5-(ethyl(tetrahydro-2H-pyran-4-yl)amino)-4′-((4-(2-(3-mercaptopropanamido)ethyl)piperazin-1-yl)methyl)-4-methyl-[1,1′-biphenyl]-3-carboxamide] | 1.5 µM
Cc1cc(C)c(CNC(=O)c2cc(-c3ccc(N4CCN(CCNC(=O)CCOCCNc5cccc6c5C(=O)N(C5CCC(=O)NC5=O)C6=O)CC4)nc3)cc3c2cnn3C(C)C)c(=O)[nH]1 (stereo not drawn) [AM29-177A, N-((4,6-dimethyl-2-oxo-1,2-dihydropyridin-3-yl)methyl)-6-(6-(4-(2-(3-(2-((2-(2,6-dioxopiperidin-3-yl)-1,3-dioxoisoindolin-4-yl)amino)ethoxy)propanamido)ethyl)piperazin-1-yl)pyridin-3-yl)-1-isopropyl-1H-indazole-4-carboxamide] | 2.5 µM
COc1cc(C)[nH]c(=O)c1CNC(=O)c1c(C)n([C@@H](C)C2CCN(CCN(CCC34CC5CC(CC(C5)C3)C4)CCC34CC5CC(CC(C5)C3)C4)CC2)c2ccccc12 [XF042-95, 1-((S)-1-(1-(2-(bis(2-((3S,5S,7S)-adamantan-1-yl)ethyl)amino)ethyl)piperidin-4-yl)ethyl)-N-((4-methoxy-6-methyl-2-oxo-1,2-dihydro-pyridin-3-yl)methyl)-2-methyl-1H-indole-3-carboxamide] | 2.5 µM
Cc1cc(C)c(CNC(=O)c2c(C)n([C@@H](C)C3CCN(CCNCCC45CC6CC(CC(C6)C4)C5)CC3)c3ccccc23)c(=O)[nH]1 [XF042-133, 1-((S)-1-(1-(2-((2-((3S,5S,7S)-adamantan-1-yl)ethyl)amino)ethyl)piperidin-4-yl)ethyl)-N-((4,6-dimethyl-2-oxo-1,2-dihydropyridin-3-yl)methyl)-2-methyl-1H-indole-3-carboxamide] | 4.9 µM
